The values below come from patent US20240024500A1, “ELECTROSTATIC NANOPARTICLES AND USE THEREOF” (Westfaelische Wilhelms-Universitaet Muenster, priority 2020, published 2024).

Where two headings read alike, the source gives them in different places.

Data set [1] is described as follows: Cell-free vesicle formation, light/fluorescence microscopy. It is filed as physicochemical. Conditions: charged vs uncharged cargo, modified vs unmodified antibody. As to the method: Based upon these measurements, we hypothesized that the antibody-protamine/free SMCC-protamine/siRNA complexes form outside cells and independently of a cellular context. […]
We further analysed the properties of the different conjugation products according to their capacity to form vesicular-structures without cells when these conjugation products were incubated with Alexa488-control-siRNA (FIG. 40 G-L) as well as with EGFR-positive A459 cells (FIG. 40 M-R). When cetuximab was conjugated with SMCC-protamine at ratios of 1:1 up to 1:10, no efficient cell-free vesicle formation could be observed (FIG. 40 G-I), while at the ratio 1:32, the vesicle formation was very abundant FIG. 40 J) and decreased at ratios 1:50 and 1:100 (FIG. 40 K-L). The internalisation capacity of these complexes was highest upon conjugation 1:32 (FIG. 40 P), decrease upon conjugation 1:10 (FIG. 40 O). […] This hinted at an optimal complex formation of cetuximab with SMCC-protamine of 1:32, since this lead to the most efficient conjugation, vesicle formation without cells and internalisation into cells.
To further elucidate the function of SMCC-protamine coupled to the antibody and as free molecule within the complex, we titrated the amount of SMCC-protamine added to the antibody-protamine-conjugates that were depleted from free SMCC-protamine by HPLC. […] We added different amounts of free SMCC-protamine and protamine alone to anti-EGFR-mAB-P (FIG. 41).

The test system of the next data set is HBL-1 cells. Description: Colony formation assay, HBL-1, ibrutinib-Cy3.5 cargo. The format is cell-based. The procedure: Next, we planned functional assays for identifying the effectivity of the antibody-inhibitor-complexes. DLBCL tumor cells were seeded in methylcellulose to form anchorage-free colony growth as a substitute marker for tumorigenicity. Assays were treated with combinations of antibody-inhibitor complexes and compared with appropriate control groups.
This colony-assay is used for quantification of anchorage-independent clonal cell growth and is a standard in vitro surrogate for tumorigenicity in vivo.

The subject of a further data set is HBL-1 DLBCL-cells. Description: NSG-HBL1 xenograft model. As to conditions: after treatment start.
The target of data set [2] is EGFR (epidermal growth factor receptor) on cells (UniProt P00533). Description: cell-based or functional assay.

Take rituximab: anti-CD20 antibody: the “nanoparticle formation with antibody carriers” value in data set [1] is given as “not seen”. Also, the “colony formation of HBL-1 cells” value is given as “only a mild effect” in the data set on HBL-1 cells (listed as unconjugated rituximab) and “not” with HBL-1 cells (listed as unmodified rituximab (αCD20-mAB)). In addition, in the data set with HBL-1 DLBCL-cells, the “day by which all / the last mice had to be sacrificed” value was no more than 16 days.
For the compound “cetuximab-SMCC-protamine conjugate (anti-EGFR-mAB-protamine, used with free SMCC-protamine) (antibody)”, in data set [2], the Alexa488-siRNA shuttled into RD cells (FACS) was > 90 % of cells and the internalisation of Alexa488-siRNA into RD cells (FACS) was < 90 % of cells.
As for `C=CC(=O)N1CCC[C@@H](n2nc(-c3ccc(Oc4ccccc4)cc3)c3c(N)ncnc32)C1` [ibrutinib, 1-[(3R)-3-[4-amino-3-(4-phenoxyphenyl)pyrazolo[3,4-d]pyrimidin-1-yl]piperidin-1-yl]prop-2-en-1-one], the results for the “nanoparticle formation with antibody carriers” value in data set [1] and in data set [1] (listed as uncharged ibrutinib) were “not seen” and “not”, respectively. Further, the “colony formation of HBL-1 cells” value in the data set on HBL-1 cells was “much lesser degree”. Moreover, the “day by which all / the last mice had to be sacrificed” value in the data set on HBL-1 DLBCL-cells came to 20 days.
